Consider 9 molecules from patent publication US20030109568A1 (CHEIL JEDANG Corporation, priority 2001, published 2003).

The target in experiment [1] is T1, cyclooxygenase-1 (Mus musculus, UniProt P22437).
T1 construct: endogenous in cells; host or cells: primary mouse peritoneal macrophages (unstimulated)
T1 sequence (P22437 27-602): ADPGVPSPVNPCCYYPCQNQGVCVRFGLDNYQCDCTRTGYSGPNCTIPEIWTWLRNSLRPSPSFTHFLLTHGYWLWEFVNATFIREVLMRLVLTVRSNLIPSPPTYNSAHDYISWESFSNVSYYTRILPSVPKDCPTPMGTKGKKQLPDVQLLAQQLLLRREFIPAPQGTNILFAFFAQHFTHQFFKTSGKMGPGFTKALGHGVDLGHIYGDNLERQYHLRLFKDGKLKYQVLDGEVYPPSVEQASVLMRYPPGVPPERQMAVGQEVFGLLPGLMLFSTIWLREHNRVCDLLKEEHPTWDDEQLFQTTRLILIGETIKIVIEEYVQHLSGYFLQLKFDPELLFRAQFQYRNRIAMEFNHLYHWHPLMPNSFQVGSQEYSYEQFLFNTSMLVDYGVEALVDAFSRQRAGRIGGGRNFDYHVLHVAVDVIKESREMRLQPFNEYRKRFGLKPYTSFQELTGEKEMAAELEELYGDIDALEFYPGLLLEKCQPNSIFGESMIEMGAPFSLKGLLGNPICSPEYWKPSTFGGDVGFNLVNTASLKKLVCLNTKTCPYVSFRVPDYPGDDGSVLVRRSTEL
The experiment is described as follows: Cyclooxygenase-1 inhibition in mouse peritoneal macrophages (PGE2 ELISA). The experiment is classed as cell-based. The settings on record: for Inhibitory effects of cyclooxygenase (COX), COX-1: mouse peritoneal macrophages. As to the method:
First of all, the cyclooxygenase-1 was examined through the following procedure.
Peritoneal fluid in which macrophages were suspended was extracted from a mouse peritoneal cavity and centrifuged at 4° C., 1,000 rpm for 2 minutes. Then, the supernatant was removed, suspended with 20 ml of incomplete RPMI medium [PC/SM (penicilin/streptomycin)] and again centrifuged under the same condition. […] Then, the cell number was calculated with the hemocytometer and adjusted to reach 1×10^6 cells/ml of cell concentration in the final cell suspension. 100 μl of the resulting suspension was transferred into each well of 96-well plate and left at 37° C. in 5% CO2 with the incubator for about 2 hours in order to attach macrophages. […] The resulting cell was cultivated in the incubator at 37° C. in 5% CO2 for about 12˜16 hours. Then, arachidonic acid was added, adjusting to 10 μM of a final concentration and incubated at 37° C. for more 10 minutes and the supernatant of the reacted solution (˜180 μl) was recovered to finish the reaction.

Experiment [2] addresses T2, cyclooxygenase-2 (Mus musculus, UniProt Q05769).
T2 construct: Peritoneal fluid suspended with macrophages was extracted from a mouse peritoneal cavity; endogenous in cells; host or cells: primary mouse peritoneal macrophages, pretreated with 500 µM aspirin and stimulated with 10 µg/ml LPS
T2 sequence (Q05769 18-604): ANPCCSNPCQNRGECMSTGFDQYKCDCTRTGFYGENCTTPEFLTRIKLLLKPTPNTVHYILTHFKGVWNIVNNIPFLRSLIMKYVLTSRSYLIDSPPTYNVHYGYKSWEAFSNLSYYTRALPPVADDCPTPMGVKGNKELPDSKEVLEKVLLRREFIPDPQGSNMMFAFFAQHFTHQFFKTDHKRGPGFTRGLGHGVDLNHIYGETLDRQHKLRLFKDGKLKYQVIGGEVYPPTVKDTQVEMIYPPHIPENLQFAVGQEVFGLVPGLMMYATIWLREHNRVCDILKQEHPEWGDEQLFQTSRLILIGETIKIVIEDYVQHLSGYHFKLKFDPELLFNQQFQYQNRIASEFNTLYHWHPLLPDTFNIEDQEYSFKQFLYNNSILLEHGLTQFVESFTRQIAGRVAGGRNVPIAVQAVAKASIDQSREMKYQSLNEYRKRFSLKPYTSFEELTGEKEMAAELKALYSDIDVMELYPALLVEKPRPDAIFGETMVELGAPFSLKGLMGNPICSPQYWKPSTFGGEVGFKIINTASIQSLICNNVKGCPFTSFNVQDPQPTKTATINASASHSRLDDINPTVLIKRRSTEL
As to the kind of experiment: Cyclooxygenase-2 inhibition in aspirin-treated, LPS-stimulated mouse peritoneal macrophages (PGE2 ELISA). The settings on record: for Inhibitory effects of cyclooxygenase (COX), COX-2: LPS-stimulated mouse peritoneal macrophages. The experiment is classed as cell-based. How it is done: Second, the cyclooxygenase-2 was examined through the following procedure.
Peritoneal fluid suspended with macrophages was extracted from a mouse peritoneal cavity and centrifuged at 4° C., 1,000 rpm for 2 minutes. Then, the supernatant was removed, suspended using incomplete RPMI medium [PC/SM (penicilin/streptomycin)] and again centrifuged under the same condition. […] Then, the cell number was calculated with the hemocytometer and adjusted to reach 1×10^6 cells/ml of cell concentration in the final cell suspension. The resulting suspension was treated with aspirin, adjusting 500 μM of final concentration and transderred into each well of 96-well plate in 100 μl respectively. Again, it was left at 37° C. in 5% CO2 in the incubator for about 2 hours in order to attach macrophages. […] The resulting cell was cultivated in the incubator at 37° C. in 5% CO2 for about 12˜16 hours. Then, arachidonic acid was added, adjusting to 10 μM of a final concentration and incubated at 37° C. for more 10 minutes and the supernatant of the reacted solution (˜180 μl) was recovered to finish the reaction.

Setting [3] is: compared with comparative substance.

For the molecule `CS(=O)(=O)Nc1ccc2c(ccn2Cc2ccc(F)cc2)c1` [Example 8, N-[1-(4-fluoro-benzyl)-1H-indole-5-yl]-methansulfonamide], the “Inhibitory effects of cyclooxygenase (COX), COX-1” value (from here on “Inhibitory effects … COX-1”) came out at 7.6 % inhibition in experiment [1] (3 μM), 32.3 % inhibition in experiment [1] (10 μM) and 53.9 % inhibition in experiment [1] (30 μM). For the same molecule, the “Inhibitory effects of cyclooxygenase (COX), COX-2” value (“Inhibitory effects … COX-2” for short) in experiment [2] (30 nM) worked out at 22.1 % inhibition; in experiment [2] (100 nM), 28.6 % inhibition; in experiment [2] (300 nM) it was 29.6 % inhibition.
Take `CC(C)c1ccc(Cn2ccc3cc([N+](=O)[O-])ccc32)cc1` [Example 5, 1-(4-isopropyl-benzyl)-5-nitro-1H-indole]: the figures for the “Inhibitory effects … COX-1” value in experiment [1] (3 μM), in experiment [1] (10 μM) and in experiment [1] (30 μM) were 39.9 % inhibition, 47.1 % inhibition and 54.3 % inhibition, respectively. Further, the “Inhibitory effects … COX-2” value in experiment [2] (30 nM) came out at 51.2 % inhibition; in experiment [2] (100 nM) it was 55.4 % inhibition; in experiment [2] (300 nM), 61.4 % inhibition.
Regarding `O=C(c1ccccc1)n1ccc2cc([N+](=O)[O-])ccc21` [Example 1, 1-benzoyl-5-nitro-1H-indole], the “Inhibitory effects … COX-1” value in experiment [1] (3 μM) stood at 33.2 % inhibition; in experiment [1] (10 μM), 40.7 % inhibition; in experiment [1] (30 μM), 45.8 % inhibition. The “Inhibitory effects … COX-2” value in experiment [2] (30 nM), in experiment [2] (100 nM) and in experiment [2] (300 nM) was “˜0 % inhibition” each time.
With `COc1ccc(Cn2ccc3cc([N+](=O)[O-])ccc32)cc1` [Example 4, 1-(4-methoxy-benzyl)-5-nitro-1H-indole], the “Inhibitory effects … COX-1” value stood at 60.3 % inhibition in experiment [1] (3 μM), 71.1 % inhibition in experiment [1] (10 μM) and 80.1 % inhibition in experiment [1] (30 μM). In addition, the “Inhibitory effects … COX-2” value was 55.4 % inhibition in experiment [2] (30 nM), 69.9 % inhibition in experiment [2] (100 nM) and 81.5 % inhibition in experiment [2] (300 nM).
In the case of `CS(=O)(=O)Nc1ccc2c(ccn2C(=O)c2ccccc2)c1` [Example 9, N-(1-benzoyl-1H-indole-5-yl)-methanesulfonamide], the “Inhibitory effects … COX-1” value in experiment [1] (3 μM) is listed as 22.8 % inhibition; in experiment [1] (10 μM), 31.1 % inhibition; in experiment [1] (30 μM), 42.1 % inhibition. Further, the “Inhibitory effects … COX-2” value came to 20.4 % inhibition in experiment [2] (30 nM), 25.5 % inhibition in experiment [2] (100 nM) and 30.1 % inhibition in experiment [2] (300 nM).
On to `CS(=O)(=O)Nc1ccc2c(ccn2Cc2ccccc2)c1` [Example 7, N-(1-benzyl-1H-indole-5-yl)-methanesulfonamide], for which the “Inhibitory effects … COX-1” value in experiment [1] (3 μM) is 30.0 % inhibition; in experiment [1] (10 μM), 44.1 % inhibition; in experiment [1] (30 μM), 56.4 % inhibition. Also, the “inhibition effect against cyclooxygenase-1 (in words)” value in experiment [1] (setting [3]) is reported as “in much lower level than a comparative substance”. The entries for the “Inhibitory effects … COX-2” value in experiment [2] (30 nM), in experiment [2] (100 nM) and in experiment [2] (300 nM) were 59.8 % inhibition, 70.6 % inhibition and 76.8 % inhibition, respectively. Further, the “selectivity of cyclooxygenase-2 (in words)” value in experiment [2] (COX-2 versus COX-1) is reported as “better than any other substances”. Moreover, the “inhibition effect against cyclooxygenase-2 (in words)” value in experiment [2] (setting [3]) is “more excellent than a comparative substance”.
As for `O=[N+]([O-])c1ccc2c(ccn2Cc2ccccc2)c1` [Example 2, 1-benzyl-5-nitro-1H-indole], the “Inhibitory effects … COX-1” value in experiment [1] (3 μM) is 56.7 % inhibition; in experiment [1] (10 μM), 68.7 % inhibition; in experiment [1] (30 μM), 80.4 % inhibition. Also, the figures for the “Inhibitory effects … COX-2” value in experiment [2] (30 nM), in experiment [2] (100 nM) and in experiment [2] (300 nM) were 15.7 % inhibition, 20.7 % inhibition and 22.0 % inhibition, respectively.
For `Nc1ccc2c(ccn2C(=O)c2ccccc2)c1` [Example 6, 1-benzoyl-5-amino-1H-indole], the results for the “Inhibitory effects … COX-1” value in experiment [1] (3 μM), in experiment [1] (10 μM) and in experiment [1] (30 μM) were 52.3 % inhibition, 57.3 % inhibition and 64.8 % inhibition, respectively. In addition, the “Inhibitory effects … COX-2” value in experiment [2] (30 nM) was 33.4 % inhibition; in experiment [2] (100 nM), 46.6 % inhibition; in experiment [2] (300 nM) it was 54.9 % inhibition.
Turning to `O=[N+]([O-])c1ccc2c(ccn2Cc2ccc(F)cc2)c1` [Example 3, 1-(4-fluoro-benzyl)-5-nitro-1H-indole], the figures for the “Inhibitory effects … COX-1” value in experiment [1] (3 μM), in experiment [1] (10 μM) and in experiment [1] (30 μM) were 60.4 % inhibition, 64.4 % inhibition and 74.6 % inhibition, respectively. Further, the “Inhibitory effects … COX-2” value in experiment [2] (30 nM) is 50.1 % inhibition; in experiment [2] (100 nM) it was 58.8 % inhibition; in experiment [2] (300 nM), 70.2 % inhibition.
